Earlier results on 1 compound are cited in patent US20080207756A1, “Bio-absorbable oil suspension” (ATRIUM MEDICAL CORPORATION, priority 2007, published 2008).

Where a name gives a salt, the structure may show the parent alone.

The conditions of this data set: liquid Bupivacaine HCL without epinephrine.

Consider `CCCCN1CCCCC1C(=O)Nc1c(C)cccc1C` (stereo not shown) [Bupivacaine HCL], for which the half life is 2 to 3 h.
